The test system of one data set is rat pituitary cells. Kind of data set: Pituitary cell desensitization - intracellular calcium assay. It counts as cell-based. From the text:
Thus, it appears that sustained release formulations would not provide the desired in vivo response. The experiment was designed so that changes in intracellular calcium concentration could be continuously monitored during successive exposures of the same cells to the indicated test substances.
Rat pituitary cells were isolated as described in Example 3 and plated onto poly-D-lysine-coated glass coverslips, one coverslip per well in 12-well plates, at a density of 3-4×10^5 cells per well. Assays were performed 3-4 days after plating. Cells were loaded with 5 μM fura-2 AM (Molecular Probes, Eugene, Oreg.), a calcium-sensitive fluorescent dye, by incubation for 30 min at room temperature. Fura-2 was dissolved in dimethylsulfoxide at 5 mM, then diluted into KRH buffer (115 mM NaCl, 5.4 mM KCl, 1.8 mM CaCl2, 1 mM MgCl2, 0.96 mM NaH2PO4, 25 mM HEPES, 6 mM glucose and 0.05% bovine serum albumin, adjusted to pH 7.3)
To assay changes in intracellular calcium concentration, a coverslip with attached cells was mounted in a perfusion chamber on the stage of an inverted microscope (Zeiss Axiovert 135 with epifluorescence, Geschaftsbereich Mikroscopie, Oberkochen, Germany) and continuously superfused at room temperature. After superfusion with KRH for 1-2 min, baseline fluorescence was recorded. Each test substance was applied for 2 min, followed by washout with KRH prior to stimulation with the next test substance. Up to 20 individual cells per field were selected for recording and were excited alternately at wavelengths of 380 nm or 340 nm (slit width 15 nm). Fluorescence emission at 510 nm was collected at 5 sec intervals by a low light CCD camera (Hamamatsu Photonics, Hamamatsu City, Japan), and digitized images for the two excitation wavelengths were analyzed using Videoprobe software (ETM Systems, Irvine, Calif.) to determine the 340 nm/380 nm fluorescence ratio for individual cells during each time interval. The 340 nm/380 nm fluorescence ratio is proportional to the concentration of intracellular calcium.

Data set [1] can be described thus: Clinical study: body composition (total adipose and total lean tissue). It counts as in vivo, human. The procedure:
(§1) (All dosage forms in this part of the study were immediate release dosage forms.)
(§2) In addition, an extension study was conducted to evaluate the relationship between peak GH concentrations or IGF-I versus surrogate responses such as lipid concentrations and body composition. A sustained release (SR) formulation was also evaluated, either alone or combined with an immediate release (IR) formulation (24-30 patients per group). [16 mg (10 SR, 6 IR) h.s. (h.s. means at bedtime); 16 mg (10 SR, 6 IR) h.s. every third day; 16 mg SR h.s.; and placebo.] The formulations are set forth below.
(§3) The primary efficacy endpoint was the percentage change from baseline in IGF-1. Secondary outcomes included insulin-like growth factor binding protein 3 (IGFBP-3), cholesterol subfractions, and percent changes in total adipose and total lean tissue. Changes in each of the secondary efficacy measures over time were examined systematically either graphically or in tabular form and summarized using appropriate descriptive statistics as is well known in the art.

Data set [2] in a line: One compartment pharmacokinetic model fitted to observed human plasma concentrations. From the text:
A one compartment pharmacokinetic model was constructed using the following equations (I Think, Stella, HPS, Hanover, N.H.): […]
where ba is bioavailability (1.0), Vdist_liter is volume of distribution in units of liters (0.75), ka_hr1 is absorption rate constant in units of reciprocal hr (1.3), and thalf_hr is the plasma concentration vs. time elimination half-life in units of hr (2.5).
These parameters were then fixed to the values noted above for all subsequent simulations.

In a further data set the test system is IGF-1. Description: Clinical study in subjects 65-84 years: change from baseline in IGF-1. It counts as in vivo, human. The procedure:
This clinical study was performed in male and female subjects between the ages of 65 and 84 years inclusive, and whose baseline IGF-1 levels were <150 ng/ml.
The study was a double blind, parallel group, placebo-controlled study.
as §1, §2
Study active compound was supplied in blisterpaks, with five tablets to be taken at time of each dosing. Subjects were instructed to take the tablets with one glass of water at bedtime.
Return visits were scheduled at 1, 2, and 4 weeks after baseline. […] The baseline and all subsequent follow-up visits were performed at the same time of day (between approximately 8-11 am).
A follow-up evaluation was made at 1, 2, and 4 weeks. Vital signs were obtained and the skin of the face, trunk and upper extremities was inspected.
as §3

Where [3] appears, read: first leg, immediate release dosing.
Setting [4] is: fitted one compartment model, humans.

In the case of `CN1N=C2CCN(C(=O)[C@@H](COCc3ccccc3)NC(=O)C(C)(C)N)C[C@@]2(Cc2ccccc2)C1=O.O=C(O)C(O)C(O)C(=O)O` [Compound A], the “calcium flux on re-exposure to Compound A after washout” value with rat pituitary cells (cells that initially responded to Compound A or GHRP-6) is on record as “refractory”. Moreover, in the data set on rat pituitary cells (intracellular calcium, successive exposures), the “desensitization between GHRH and Compound A” value is reported as “no desensitization”. Further, the “cellular responses (intracellular calcium) on repeated exposure” value with rat pituitary cells (successive 2 min exposures with washout) is “homologous desensitization”. Further, the “increases in lean tissue” value in data set [1] (extension study, two groups receiving IR formulation) is reported as 0.5-0.6%. Moreover, in data set [1] (setting [3]), the “adipose tissue (body composition)” value was “decreased” and the “apparent whole body lean mass” value is “increased”. For the same compound, in data set [2] (setting [4]), the “absorption rate constant (ka_hr1)” value is given as 1.3 reciprocal hr, the “plasma concentration vs. time elimination half-life (thalf_hr)” value was 2.5 h and the “volume of distribution (Vdist_liter)” value turned out to be 0.75 L. Besides, in data set [2] (fitted to observed plasma concentrations after oral 10, 3 and 0.3 mg doses to humans), the “bioavailability (ba)” value came to 1.0. The “average rise of IGF-I” value in the data set with IGF-1 (extension study, 16 mg (10 SR, 6 IR) h.s. every third day) is reported as “approximately 10%”. Besides, in the data set with IGF-1 (extension study, each of the 2 groups dosed daily (16 mg (10 SR, 6 IR) h.s.; 16 mg SR h.s.)), the IGF-I result was “increases”. Besides, the “increase in IGF-I” value with IGF-1 (first leg, both groups administered 9 mg daily (3 mg tid; 3 mg am and 6 mg pm), immediate release, subjects 65-84 years) is recorded as “approximately 35%”.
